From patent US6210964A, “Avian extracellular calcium-sensing receptor” (The Brigham and Women's Hospital, Inc., priority 1998, dated 2001)
pEC50: −log10 of the molar value. Blank lines part the entries; values can stand above or below the compound they belong to.

Key:
chicken CaR = target: T1, chicken CaR (Gallus gallus, UniProt A0A8V0ZLX2); test: Expression of chicken CaR in Xenopus laevis oocytes, agonist-dependent inward Cl- currents; format: cell-based
T1 construct: ORF 3177 nt, nt 87-3263), T7 cRNA injected into Xenopus laevis oocytes
T1 sequence (A0A8V0ZLX2 20-1059): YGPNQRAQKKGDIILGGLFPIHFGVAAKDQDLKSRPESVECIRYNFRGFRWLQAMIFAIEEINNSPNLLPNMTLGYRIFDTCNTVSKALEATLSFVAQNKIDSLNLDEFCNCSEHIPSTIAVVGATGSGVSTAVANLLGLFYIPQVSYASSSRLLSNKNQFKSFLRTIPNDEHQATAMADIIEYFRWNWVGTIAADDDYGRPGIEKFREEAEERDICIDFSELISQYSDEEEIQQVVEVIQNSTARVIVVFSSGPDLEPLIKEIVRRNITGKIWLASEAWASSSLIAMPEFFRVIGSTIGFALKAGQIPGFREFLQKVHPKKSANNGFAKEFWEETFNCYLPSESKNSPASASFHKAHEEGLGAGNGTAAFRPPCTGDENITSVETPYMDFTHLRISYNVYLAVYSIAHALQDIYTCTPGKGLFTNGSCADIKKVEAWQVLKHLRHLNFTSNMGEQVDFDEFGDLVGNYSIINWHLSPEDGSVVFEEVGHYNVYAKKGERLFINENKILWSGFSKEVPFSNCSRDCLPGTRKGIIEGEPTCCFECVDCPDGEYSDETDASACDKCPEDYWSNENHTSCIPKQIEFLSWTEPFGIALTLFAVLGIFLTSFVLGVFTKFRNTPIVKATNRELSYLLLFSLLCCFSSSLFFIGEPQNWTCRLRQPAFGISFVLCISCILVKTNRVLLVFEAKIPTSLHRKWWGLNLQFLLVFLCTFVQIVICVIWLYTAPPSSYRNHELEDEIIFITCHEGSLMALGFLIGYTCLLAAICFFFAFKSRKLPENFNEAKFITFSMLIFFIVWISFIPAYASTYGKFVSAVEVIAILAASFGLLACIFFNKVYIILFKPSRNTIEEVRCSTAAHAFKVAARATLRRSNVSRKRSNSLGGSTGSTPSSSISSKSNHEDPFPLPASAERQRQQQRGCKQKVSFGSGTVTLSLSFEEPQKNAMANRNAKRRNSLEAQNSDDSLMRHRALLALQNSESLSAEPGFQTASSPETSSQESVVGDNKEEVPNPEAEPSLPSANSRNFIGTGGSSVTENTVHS
Description: Expression of the chicken CaR in Xenopus laevis oocytes. The assay is based on injection of synthetic RNA (cRNA) for the chicken CaR into Xenopus oocytes and measurement of agonist-dependent inward currents due to CaR-mediated stimulation of Ca^2+ -activated Cl^- channels (Brown, et al., Nature 366: 575-580 (1993)). In preparing, handling and injecting the oocytes, the techniques of Hediger et al. were followed (Proc. Nat'l Acad. Sci. USA 84:2634-2637 (1987)). cRNA was transcribed from the C1D one as previously described (Brown et al. Nature 336:575-580 (1993)). In vitro transcription of cRNA was done with T7 RNA polymerase in the presence of a cap analog (m^7 -GpppG, Pharmacia Biotech, Upsala, Sweden). Defolliculated oocytes were injected with 50 nl of a 0.25 μg/μl aqueous solution of CaR cRNA or with the same volume of H2 O as a negative control. The injected oocytes were then incubated in ND96 "standard" solution containing 92 mM Na, 5 mM K, 0.5 mM CaCl2 0.5 mM MgCl and 5 mM Hepes, pH 7.5, for 3-4 days before electrophysiological study. Cl^- currents were elicited by treatment of the oocytes with increasing concentrations of Ca^2+0, Mg^2+0 or Gd^3+0 and were measured using two electrode voltage clamp at a holding potential of […], as described in detail previously (Brown et al. Nature 336:575-580 (1993); Riccardi, et al. Proc. Nat'l Acad. Sci. USA 92:131-135 (1995)).

human CaR [1] = target: T2, human CaR (Homo sapiens, UniProt P41180); test: Cytosolic calcium (Cai) response of HEK 293 cells stably transfected with the human CaR; format: cell-based; set-up: expressed in transfected cells; host or cells: HEK 293; conditions: for effect on the EC50 of activation by Cao compared with 40 mM NaCl: addition of 40 mM salt
T2 sequence (P41180 20-1078): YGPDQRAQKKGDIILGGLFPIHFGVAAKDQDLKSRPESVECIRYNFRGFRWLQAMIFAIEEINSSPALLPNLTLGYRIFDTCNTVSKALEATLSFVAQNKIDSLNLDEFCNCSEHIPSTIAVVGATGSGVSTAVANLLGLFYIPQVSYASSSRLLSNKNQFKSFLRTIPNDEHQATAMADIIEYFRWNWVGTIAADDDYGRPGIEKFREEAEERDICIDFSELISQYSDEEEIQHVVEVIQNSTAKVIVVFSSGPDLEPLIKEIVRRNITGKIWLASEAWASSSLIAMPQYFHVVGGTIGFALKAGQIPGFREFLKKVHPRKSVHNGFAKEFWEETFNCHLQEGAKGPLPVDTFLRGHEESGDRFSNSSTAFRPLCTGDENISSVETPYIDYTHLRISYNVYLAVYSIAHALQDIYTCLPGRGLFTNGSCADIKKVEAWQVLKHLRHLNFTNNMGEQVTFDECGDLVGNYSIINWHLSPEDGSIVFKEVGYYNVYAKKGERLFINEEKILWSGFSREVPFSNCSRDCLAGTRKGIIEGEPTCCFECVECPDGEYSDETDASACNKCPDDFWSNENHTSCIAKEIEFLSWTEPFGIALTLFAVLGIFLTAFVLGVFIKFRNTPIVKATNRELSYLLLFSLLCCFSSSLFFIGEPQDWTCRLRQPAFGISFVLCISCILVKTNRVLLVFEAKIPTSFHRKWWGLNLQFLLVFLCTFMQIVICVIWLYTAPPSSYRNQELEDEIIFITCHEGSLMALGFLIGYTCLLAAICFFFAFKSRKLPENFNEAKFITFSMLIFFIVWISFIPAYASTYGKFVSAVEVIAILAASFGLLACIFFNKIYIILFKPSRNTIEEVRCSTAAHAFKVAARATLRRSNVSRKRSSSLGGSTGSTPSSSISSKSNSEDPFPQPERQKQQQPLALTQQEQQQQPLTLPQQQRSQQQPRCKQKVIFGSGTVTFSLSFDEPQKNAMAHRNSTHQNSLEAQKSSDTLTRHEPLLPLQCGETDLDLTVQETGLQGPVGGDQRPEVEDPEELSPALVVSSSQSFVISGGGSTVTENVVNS
Protocol: Measurement of Cai using cell population system: Coverslips with near-confluent HEK cells were loaded with fura-2/AM and placed diagonally into thermostated cuvettes equipped with a magnetic stirrer. The bath solution was stirred at 37° C., and CaR agonists were added to the desired final concentration. Excitation monochrometers was centered at 340 nm and 380 nm with emission light collected at 90° using a long-pass emission filter. The 340/380 excitation ratio of emitted light was used to calculate Cai. Both in vivo and in vitro calibrations were used to estimate Cai.

human CaR [2] = target: T2, human CaR; conditions: addition of NaCl
Protocol: Measurement of ^3 H-inositol phosphates: Cells transfected with DNA encoding human CaR were labeled with [^3 H]inositol (10 uCi/10^6 cells) overnight in medium 199 (with 10 ul/ml penicillin-streptomycin, 10 mM Hepes, pH 7.5, and 15% bovine serum), washed with solution (10 mM LiCl, 0.5 mM MgSO4, 0.5 mM CaCl2, and 2 mg/ml BSA in Eagle's MEM with Earle's salts), and then incubated with polyvalent cations for 30 minutes. Reactions were terminated with a final concentration of 10% TCA. After sedimentation of precipitated debris and removal of TCA by ether extraction, inositol phosphates in the aqueous phase were separated on Dowex anion exchange columns. The radioactive inositol monophosphate (InsP), bisphosphate (InsP2), trisphosphate (InsP3) and tetraphosphate (InsP4) were eluted stepwise with 0.2 M, 0.4 M, 0.8 M and 1.2 M formate containing 0.1 M formic acid, respectively, and quantitated using a liquid scintillation counter.

[3] = oocytes injected with chicken CaR cRNA, Cl- currents

Structure (SMILES): [Cl-].[Na+] [NaCl, sodium chloride]
- effect on Cai response to 2.5 mM Cao (human CaR [1]; NaCl elevated by 20 to 60 mM): attenuated
- effect on threshold and EC50 of Cao activation (human CaR [1]; addition of NaCl in 20 mM increments): shift to the right
- effect on Ca0-stimulated inositol phosphate accumulation (human CaR [2]): attenuated

Structure (SMILES): C[N+](C)(C)CCO.[Cl-] [choline chloride]
- effect on the EC50 of activation by Cao compared with 40 mM NaCl (human CaR [1]): same effect

Structure (SMILES): [Cl-].[K+] [potassium chloride]
- effect on the EC50 of activation by Cao compared with 40 mM NaCl (human CaR [1]): same effect

Further lines, results first:

- effective concentration range (chicken CaR; [3]): millimolar range
- threshold for cell activation (human CaR [1]; no alteration in NaCl): about 1.5 mM
- pEC50 (human CaR [1]; no alteration in NaCl, read-out: EC50 for activation of the CaR): ~2.46
- shift in the EC50 per 10 mM change in ionic strength (human CaR [1]; per 10 mM change in ionic strength): approximately 0.2 mM
Structure (SMILES): [Ca+2] [Ca^2+o]

- magnitude of inward current responses relative to Ca2+-evoked responses (chicken CaR; FIG. 5): almost an order of magnitude greater
- half-maximal activation (chicken CaR; [3]): micromolar range
Structure (SMILES): [Gd+3] [Gd^3+o]

- effective concentration range (chicken CaR; [3]): millimolar range
Structure (SMILES): [Mg+2] [Mg^2+o]
